Format: in vivo, human
Conditions: for maximal mean blood (serum) level: single sublingual dose of Avidekel oil, 4 drops (6.4 mg Δ9-THC and 26 mg CBD), N=7, LC-MS/MS
Method: Blood samples were withdrawn at time 0 and after administration of Avidekel oil extract, a sublingual dose 4 drops. Blood samples were withdrawn in intervals of 15, 30, 45, 60 and 90 min., and 2, 3, 4, 5, and 6 h., and stored at −70° C. until analysis at NMS Labs using LC-MS/MS.
FIG. 2A-2D show mean cannabinoid blood levels after administration of a single dose of Avidekel oil (6.4 mg Δ^9-THC and 26 mg CBD).

[1] = single dose of Avidekel oil (6.4 mg Δ9-THC and 26 mg CBD), N=7

Row | Compound | mean blood level after the drop from the maximum (single dose of Avidekel oil (6.4 mg Δ9-THC and 26 mg CBD), N=7, within 6 h sampling period) [ng/mL] | maximal mean blood (serum) level [ng/mL] | mean blood level after 90 min [1] [ng/mL] | mean blood level reached during the 6 h period (still rising) [1] [ng/mL] | blood levels 6 h after administration [1]
1 | CCCCCc1cc(O)c2c(c1)OC(C)(C)[C@@H]1CCC(CO)=C[C@@H]21 [11-Hydroxy Δ^9-THC] | 1.9 ± 1.1 | 4.5 ± 4.2 | – | – | –
2 | C=C(C)[C@@H]1CCC(C)=C[C@H]1c1c(O)cc(CCCCC)cc1O [CBD, 2-[(1R,6R)-6-isopropenyl-3-1-yl]-5-pentylbenzene-1,3-diol, reference compound] | – | 6.2 ± 5.9 | – | – | –
3 | CCCCCc1cc(O)c2c(c1)OC(C)(C)[C@@H]1CCC(C(=O)O)=C[C@@H]21 [Δ^9 Carboxy THC] | – | – | 34.5 ± 47.7 | 75.5 ± 77.0 | –
4 | CCCCCc1cc(O)c2c(c1)OC(C)(C)[C@@H]1CCC(C)=C[C@@H]21 [Δ^9-THC, (−)-(6aR,10aR)-6,6,9-Trimethyl-3-methylcyclohex-2-en-pentyl-6a,7,8,10α-tetrahydro-6H-benzo[c]chromen-1-ol, reference compound] | – | 2.3 ± 2.2 | – | – | typical to those after 24 hours of Cannabis washout
